Key:
Type in all cases: ADME
Settings in all cases: 0.5 h
[1] = target: T1, Cytochrome P450 2C8 (Homo sapiens, UniProt P10632); experiment: Drug metabolism in supersomes expressing human recombinant CYP2C8 assessed as enzyme-mediated N-desmethylclozapine metabolite formation at 10 uM after 30 mins measured per nmol of P450 by HPLC analysis
T1 sequence (P10632 whole entry): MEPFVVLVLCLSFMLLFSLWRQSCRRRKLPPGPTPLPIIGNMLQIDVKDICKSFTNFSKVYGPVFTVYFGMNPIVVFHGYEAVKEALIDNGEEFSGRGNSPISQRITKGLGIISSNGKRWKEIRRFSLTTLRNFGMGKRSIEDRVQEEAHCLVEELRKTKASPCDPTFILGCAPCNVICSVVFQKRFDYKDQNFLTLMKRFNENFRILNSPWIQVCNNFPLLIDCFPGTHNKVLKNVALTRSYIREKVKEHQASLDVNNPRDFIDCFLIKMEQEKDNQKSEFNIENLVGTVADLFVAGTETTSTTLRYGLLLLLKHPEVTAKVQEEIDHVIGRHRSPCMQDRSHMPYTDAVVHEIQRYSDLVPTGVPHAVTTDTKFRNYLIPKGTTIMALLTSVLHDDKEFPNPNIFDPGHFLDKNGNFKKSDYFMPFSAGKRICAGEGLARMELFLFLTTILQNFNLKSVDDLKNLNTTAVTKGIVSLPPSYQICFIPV

[2] = target: T2, Cytochrome P450 1A1 (Homo sapiens, UniProt P04798); experiment: Drug metabolism in supersomes expressing human recombinant CYP1A1 assessed as enzyme-mediated total GSH conjugate formation at 10 uM after 30 mins measured per nmol of P450 by HPLC analysis in presence of GSH and hGST P1-1
T2 sequence (P04798 whole entry): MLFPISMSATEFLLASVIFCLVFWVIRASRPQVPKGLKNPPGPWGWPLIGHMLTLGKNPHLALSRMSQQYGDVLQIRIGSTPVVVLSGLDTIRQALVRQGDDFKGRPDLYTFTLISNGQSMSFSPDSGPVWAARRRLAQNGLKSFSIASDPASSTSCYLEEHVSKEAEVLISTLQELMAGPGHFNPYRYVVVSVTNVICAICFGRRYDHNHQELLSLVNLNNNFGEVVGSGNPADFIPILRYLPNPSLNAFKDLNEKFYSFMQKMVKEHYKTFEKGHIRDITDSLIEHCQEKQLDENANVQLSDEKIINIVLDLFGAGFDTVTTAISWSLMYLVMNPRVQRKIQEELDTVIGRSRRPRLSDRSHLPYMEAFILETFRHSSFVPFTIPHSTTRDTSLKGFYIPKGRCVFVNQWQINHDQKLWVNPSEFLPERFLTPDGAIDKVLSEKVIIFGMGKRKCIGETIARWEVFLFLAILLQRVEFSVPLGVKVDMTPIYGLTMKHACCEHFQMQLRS

[3] = target: T3, Cytochrome P450 2D6 (Homo sapiens, UniProt P10635); experiment: Drug metabolism in supersomes expressing human recombinant CYP2D6 assessed as enzyme-mediated clozapine-N-oxide metabolite formation at 10 uM after 30 mins measured per nmol of P450 by HPLC analysis
T3 sequence (P10635 whole entry): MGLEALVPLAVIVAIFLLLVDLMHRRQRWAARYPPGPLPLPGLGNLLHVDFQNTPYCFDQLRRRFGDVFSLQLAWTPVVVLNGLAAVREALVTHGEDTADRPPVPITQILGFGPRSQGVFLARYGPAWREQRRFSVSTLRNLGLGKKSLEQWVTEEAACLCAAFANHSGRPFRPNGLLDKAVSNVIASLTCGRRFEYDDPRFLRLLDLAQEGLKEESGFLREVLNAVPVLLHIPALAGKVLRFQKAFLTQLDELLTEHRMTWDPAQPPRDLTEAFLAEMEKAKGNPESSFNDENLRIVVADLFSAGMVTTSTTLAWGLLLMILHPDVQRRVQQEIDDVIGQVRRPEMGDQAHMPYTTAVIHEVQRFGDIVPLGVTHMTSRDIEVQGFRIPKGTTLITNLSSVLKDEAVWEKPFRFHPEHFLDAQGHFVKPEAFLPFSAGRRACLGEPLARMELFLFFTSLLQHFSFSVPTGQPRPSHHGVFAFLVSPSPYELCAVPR

[4] = target: T4, Cytochrome P450 1B1 (Homo sapiens, UniProt Q16678); experiment: Drug metabolism in supersomes expressing human recombinant CYP1B1 assessed as enzyme-mediated N-desmethylclozapine metabolite formation at 100 uM after 30 mins measured per nmol of P450 by HPLC analysis
T4 sequence (Q16678 whole entry): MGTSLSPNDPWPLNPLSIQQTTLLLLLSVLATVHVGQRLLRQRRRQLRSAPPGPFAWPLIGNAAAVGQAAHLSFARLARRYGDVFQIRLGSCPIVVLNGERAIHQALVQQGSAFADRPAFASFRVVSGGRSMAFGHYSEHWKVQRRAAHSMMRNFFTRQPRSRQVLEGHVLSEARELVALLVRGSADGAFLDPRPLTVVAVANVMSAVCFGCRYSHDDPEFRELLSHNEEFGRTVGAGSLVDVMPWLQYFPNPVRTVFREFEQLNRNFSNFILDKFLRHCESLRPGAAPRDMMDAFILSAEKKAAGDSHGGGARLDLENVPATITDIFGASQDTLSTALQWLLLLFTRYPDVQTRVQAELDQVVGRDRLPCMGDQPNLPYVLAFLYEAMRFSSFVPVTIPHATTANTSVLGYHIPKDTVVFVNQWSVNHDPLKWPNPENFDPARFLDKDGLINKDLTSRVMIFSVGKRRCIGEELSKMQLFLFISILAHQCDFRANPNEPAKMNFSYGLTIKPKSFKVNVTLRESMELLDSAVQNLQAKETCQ

[5] = target: T4, Cytochrome P450 1B1; experiment: Drug metabolism in supersomes expressing human recombinant CYP1B1 assessed as enzyme-mediated total GSH conjugate formation at 10 uM after 30 mins measured per nmol of P450 by HPLC analysis in presence of GSH and hGST P1-1
[6] = target: T5, Cytochrome P450 2C18 (Homo sapiens, UniProt P33260); experiment: Drug metabolism in supersomes expressing human recombinant CYP2C18 assessed as enzyme-mediated cyanide adduct formation at 100 uM after 30 mins measured per nmol of P450 by HPLC analysis in presence of KCN
T5 sequence (P33260 whole entry): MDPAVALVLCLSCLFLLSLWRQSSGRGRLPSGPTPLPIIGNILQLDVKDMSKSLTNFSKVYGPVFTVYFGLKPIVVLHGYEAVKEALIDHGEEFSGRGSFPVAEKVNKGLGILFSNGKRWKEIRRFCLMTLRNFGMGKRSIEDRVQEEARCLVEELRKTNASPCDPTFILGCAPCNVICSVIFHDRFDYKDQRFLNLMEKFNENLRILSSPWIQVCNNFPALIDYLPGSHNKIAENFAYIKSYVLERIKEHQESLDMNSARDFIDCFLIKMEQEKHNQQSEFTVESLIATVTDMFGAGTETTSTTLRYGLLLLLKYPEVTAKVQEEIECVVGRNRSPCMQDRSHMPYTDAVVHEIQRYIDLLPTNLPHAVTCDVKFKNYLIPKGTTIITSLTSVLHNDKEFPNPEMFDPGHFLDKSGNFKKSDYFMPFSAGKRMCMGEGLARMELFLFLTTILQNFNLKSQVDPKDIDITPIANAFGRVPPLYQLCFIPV

[7] = target: T3, Cytochrome P450 2D6; experiment: Drug metabolism in supersomes expressing human recombinant CYP2D6 assessed as enzyme-mediated N-desmethylclozapine metabolite formation at 10 uM after 30 mins measured per nmol of P450 by HPLC analysis

CN1CCN(C2=Nc3cc(Cl)ccc3Nc3ccccc32)CC1 [CLOZAPINE]
Drug metabolism [1]: 0.92 nmol/min
Drug metabolism [2]: 0.3 nmol/min
Drug metabolism [3]: 0.51 nmol/min
Drug metabolism [4]: 0.94 nmol/min
Drug metabolism [5]: 0.15 nmol/min
Drug metabolism [6]: 0.41 nmol/min
Drug metabolism [7]: 8.43 nmol/min/nmol P450

Reference: ChEMBL document CHEMBL3525934 (Drug Metab Dispos, 2013)
